Results taken from article PMC4066754 (2014).

Experiments:
[1] = system: template 8tat:primer, no downstream-binding oligonucleotide (DNA, duplex, 3'-amino-2',3'-dideoxynucleoside at primer 3' end) CTGGATTTCCTCAGTATCGTGCG/CGCACGA; test: inhibition of enzyme-free primer extension (MALDI-ToF kinetics); details: 400 mM NaCl, 80 mM MgCl2; 200 mM HEPES, pH 8.9, 20°C; competes with 7.2 mM TMP-OAt; calculated from Kinh
[2] = system: hairpin 4a (DNA, hairpin, hexaethylene glycol (HEG) loop linker between 4 and 5) ACAGCTG; test: 1H NMR titration; details: 400 mM NaCl, 80 mM MgCl2; 200 mM phosphate in D2O, pH 8.9, 20°C, 0.5 mM hairpin
[3] = system: template 8cac:primer, no downstream-binding oligonucleotide (DNA, duplex, 3'-amino-2',3'-dideoxynucleoside at primer 3' end) CTGGATTTCCTCAGCACCGTGCG/CGCACGG; test: inhibition of enzyme-free primer extension (MALDI-ToF kinetics); details: 400 mM NaCl, 80 mM MgCl2; 200 mM HEPES, pH 8.9, 10°C; competes with 7.2 mM TMP-OAt; calculated from Kinh
[4] = system: template 8tat:primer + downstream-binding oligonucleotide (DNA, duplex, 3'-amino-2',3'-dideoxynucleoside at primer 3' end) CTGGATTTCCTCAGTATCGTGCG/CGCACGA/ACTGAGGAAATCCA; test: as above; details: 400 mM NaCl, 80 mM MgCl2; 200 mM HEPES, pH 8.9, 20°C; competes with 7.2 mM TMP-OAt; calculated from Kinh
[5] = system: hairpin 2a (DNA, hairpin, hexaethylene glycol (HEG) loop linker between 4 and 5) ATGCGCA; test: 1H NMR titration; details: 400 mM NaCl, 80 mM MgCl2; 200 mM phosphate in D2O, pH 8.9, 20°C, 0.5 mM hairpin
[6] = system: template 8aaa:primer + downstream-binding oligonucleotide (DNA, duplex, 3'-amino-2',3'-dideoxynucleoside at primer 3' end) CTGGATTTCCTCAGAAACGTGCG/CGCACGT/TCTGAGGAAATCCA; test: inhibition of enzyme-free primer extension (MALDI-ToF kinetics); details: 400 mM NaCl, 80 mM MgCl2; 200 mM HEPES, pH 8.9, 20°C; competes with 7.2 mM TMP-OAt; calculated from Kinh
[7] = system: template 8cac:primer + downstream-binding oligonucleotide (DNA, duplex, 3'-amino-2',3'-dideoxynucleoside at primer 3' end) CTGGATTTCCTCAGCACCGTGCG/CGCACGG/GCTGAGGAAATCCA; test: as above; details: 400 mM NaCl, 80 mM MgCl2; 200 mM HEPES, pH 8.9, 20°C; competes with 7.2 mM TMP-OAt; calculated from Kinh
[8] = system: template 8gag:primer + downstream-binding oligonucleotide (DNA, duplex, 3'-amino-2',3'-dideoxynucleoside at primer 3' end) CTGGATTTCCTCAGGAGCGTGCG/CGCACGC/CCTGAGGAAATCCA; test: as above; details: 400 mM NaCl, 80 mM MgCl2; 200 mM HEPES, pH 8.9, 20°C; competes with 7.2 mM TMP-OAt; calculated from Kinh
[9] = system: hairpin 3a (DNA, hairpin, hexaethylene glycol (HEG) loop linker between 6 and 7) CTATGCGCA; test: 1H NMR titration; details: 400 mM NaCl, 80 mM MgCl2; 200 mM phosphate in D2O, pH 8.9, 20°C, 0.5 mM hairpin
[10] = system: hairpin 2g (DNA, hairpin, hexaethylene glycol (HEG) loop linker between 4 and 5) GTGCGCA; test: 1H NMR titration; details: 400 mM NaCl, 80 mM MgCl2; 200 mM phosphate in D2O, pH 8.9, 20°C, 0.5 mM hairpin
[11] = system: template 8tgt:primer + downstream-binding oligonucleotide (DNA, duplex, 3'-amino-2',3'-dideoxynucleoside at primer 3' end) CTGGATTTCCTCAGTGTCGTGCG/CGCACGA/ACTGAGGAAATCCA; test: inhibition of enzyme-free primer extension (MALDI-ToF kinetics); details: 400 mM NaCl, 80 mM MgCl2; 200 mM HEPES, pH 8.9, 20°C; competes with 3.6 mM dCMP-OAt; calculated from Kinh
[12] = system: template 8aga:primer + downstream-binding oligonucleotide (DNA, duplex, 3'-amino-2',3'-dideoxynucleoside at primer 3' end) CTGGATTTCCTCAGAGACGTGCG/CGCACGT/TCTGAGGAAATCCA; test: as above; details: 400 mM NaCl, 80 mM MgCl2; 200 mM HEPES, pH 8.9, 20°C; competes with 3.6 mM dCMP-OAt; calculated from Kinh
[13] = system: template 8ggg:primer + downstream-binding oligonucleotide (DNA, duplex, 3'-amino-2',3'-dideoxynucleoside at primer 3' end) CTGGATTTCCTCAGGGGCGTGCG/CGCACGC/CCTGAGGAAATCCA; test: as above; details: 400 mM NaCl, 80 mM MgCl2; 200 mM HEPES, pH 8.9, 20°C; competes with 3.6 mM dCMP-OAt; calculated from Kinh
[14] = system: template 8cgc:primer, no downstream-binding oligonucleotide (DNA, duplex, 3'-amino-2',3'-dideoxynucleoside at primer 3' end) CTGGATTTCCTCAGCGCCGTGCG/CGCACGG; test: as above; details: 400 mM NaCl, 80 mM MgCl2; 200 mM HEPES, pH 8.9, 10°C; competes with 3.6 mM dCMP-OAt; calculated from Kinh
[15] = system: hairpin 4t (DNA, hairpin, hexaethylene glycol (HEG) loop linker between 4 and 5) TCAGCTG; test: 1H NMR titration; details: 400 mM NaCl, 80 mM MgCl2, 200 mM phosphate in D2O, pH 8.9, 20°C, 0.5 mM hairpin
[16] = system: template 8cgc:primer + downstream-binding oligonucleotide (DNA, duplex, 3'-amino-2',3'-dideoxynucleoside at primer 3' end) CTGGATTTCCTCAGCGCCGTGCG/CGCACGG/GCTGAGGAAATCCA; test: inhibition of enzyme-free primer extension (MALDI-ToF kinetics); details: 400 mM NaCl, 80 mM MgCl2; 200 mM HEPES, pH 8.9, 20°C; competes with 3.6 mM dCMP-OAt; calculated from Kinh
[17] = system: template 8tgt:primer, no downstream-binding oligonucleotide (DNA, duplex, 3'-amino-2',3'-dideoxynucleoside at primer 3' end) CTGGATTTCCTCAGTGTCGTGCG/CGCACGA; test: as above; details: 400 mM NaCl, 80 mM MgCl2; 200 mM HEPES, pH 8.9, 20°C; competes with 3.6 mM dCMP-OAt; calculated from Kinh
[18] = system: RNA hairpin 6c (RNA, hairpin, hexaethylene glycol (HEG) loop linker between 4 and 5) CCAGCUG; test: 1H NMR titration; details: 400 mM NaCl, 80 mM MgCl2; 200 mM phosphate in D2O, pH 7, 20°C, 2 mM hairpin
[19] = system: template 8tct:primer + downstream-binding oligonucleotide (DNA, duplex, 3'-amino-2',3'-dideoxynucleoside at primer 3' end) CTGGATTTCCTCAGTCTCGTGCG/CGCACGA/ACTGAGGAAATCCA; test: inhibition of enzyme-free primer extension (MALDI-ToF kinetics); details: 400 mM NaCl, 80 mM MgCl2; 200 mM HEPES, pH 8.9, 20°C; competes with 3.6 mM dGMP-OAt; calculated from Kinh
[20] = system: template 8ccc:primer, no downstream-binding oligonucleotide (DNA, duplex, 3'-amino-2',3'-dideoxynucleoside at primer 3' end) CTGGATTTCCTCAGCCCCGTGCG/CGCACGG; test: as above; details: 400 mM NaCl, 80 mM MgCl2; 200 mM HEPES, pH 8.9, 10°C; competes with 3.6 mM dGMP-OAt; calculated from Kinh
[21] = system: template 8ccc:primer + downstream-binding oligonucleotide (DNA, duplex, 3'-amino-2',3'-dideoxynucleoside at primer 3' end) CTGGATTTCCTCAGCCCCGTGCG/CGCACGG/GCTGAGGAAATCCA; test: as above; details: 400 mM NaCl, 80 mM MgCl2; 200 mM HEPES, pH 8.9, 20°C; competes with 3.6 mM dGMP-OAt; calculated from Kinh
[22] = system: template 8aca:primer + downstream-binding oligonucleotide (DNA, duplex, 3'-amino-2',3'-dideoxynucleoside at primer 3' end) CTGGATTTCCTCAGACACGTGCG/CGCACGT/TCTGAGGAAATCCA; test: as above; details: 400 mM NaCl, 80 mM MgCl2; 200 mM HEPES, pH 8.9, 20°C; competes with 3.6 mM dGMP-OAt; calculated from Kinh
[23] = system: template 8tct:primer, no downstream-binding oligonucleotide (DNA, duplex, 3'-amino-2',3'-dideoxynucleoside at primer 3' end) CTGGATTTCCTCAGTCTCGTGCG/CGCACGA; test: as above; details: 400 mM NaCl, 80 mM MgCl2; 200 mM HEPES, pH 8.9, 20°C; competes with 3.6 mM dGMP-OAt; calculated from Kinh
[24] = system: hairpin 2c (DNA, hairpin, hexaethylene glycol (HEG) loop linker between 4 and 5) CTGCGCA; test: 1H NMR titration; details: 400 mM NaCl, 80 mM MgCl2; 200 mM phosphate in D2O, pH 8.9, 20°C, 0.5 mM hairpin
[25] = system: template 8gcg:primer + downstream-binding oligonucleotide (DNA, duplex, 3'-amino-2',3'-dideoxynucleoside at primer 3' end) CTGGATTTCCTCAGGCGCGTGCG/CGCACGC/CCTGAGGAAATCCA; test: inhibition of enzyme-free primer extension (MALDI-ToF kinetics); details: 400 mM NaCl, 80 mM MgCl2; 200 mM HEPES, pH 8.9, 20°C; competes with 3.6 mM dGMP-OAt; calculated from Kinh
[26] = system: hairpin 3c (DNA, hairpin, hexaethylene glycol (HEG) loop linker between 6 and 7) CTCTGCGCA; test: 1H NMR titration; details: 400 mM NaCl, 80 mM MgCl2; 200 mM phosphate in D2O, pH 8.9, 20°C, 0.5 mM hairpin
[27] = system: template 8ttt:primer, no downstream-binding oligonucleotide (DNA, duplex, 3'-amino-2',3'-dideoxynucleoside at primer 3' end) CTGGATTTCCTCAGTTTCGTGCG/CGCACGA; test: inhibition of enzyme-free primer extension (MALDI-ToF kinetics); details: 400 mM NaCl, 80 mM MgCl2; 200 mM HEPES, pH 8.9, 20°C; competes with 3.6 mM dAMP-OAt; calculated from Kinh
[28] = system: template 8ata:primer + downstream-binding oligonucleotide (DNA, duplex, 3'-amino-2',3'-dideoxynucleoside at primer 3' end) CTGGATTTCCTCAGATACGTGCG/CGCACGT/TCTGAGGAAATCCA; test: as above; details: 400 mM NaCl, 80 mM MgCl2; 200 mM HEPES, pH 8.9, 20°C; competes with 3.6 mM dAMP-OAt; calculated from Kinh
[29] = system: template 8ttt:primer + downstream-binding oligonucleotide (DNA, duplex, 3'-amino-2',3'-dideoxynucleoside at primer 3' end) CTGGATTTCCTCAGTTTCGTGCG/CGCACGA/ACTGAGGAAATCCA; test: as above; details: 400 mM NaCl, 80 mM MgCl2; 200 mM HEPES, pH 8.9, 20°C; competes with 3.6 mM dAMP-OAt; calculated from Kinh
[30] = system: template 8gtg:primer + downstream-binding oligonucleotide (DNA, duplex, 3'-amino-2',3'-dideoxynucleoside at primer 3' end) CTGGATTTCCTCAGGTGCGTGCG/CGCACGC/CCTGAGGAAATCCA; test: as above; details: 400 mM NaCl, 80 mM MgCl2; 200 mM HEPES, pH 8.9, 20°C; competes with 3.6 mM dAMP-OAt; calculated from Kinh
[31] = system: template 8ctc:primer, no downstream-binding oligonucleotide (DNA, duplex, 3'-amino-2',3'-dideoxynucleoside at primer 3' end) CTGGATTTCCTCAGCTCCGTGCG/CGCACGG; test: as above; details: 400 mM NaCl, 80 mM MgCl2; 200 mM HEPES, pH 8.9, 10°C; competes with 3.6 mM dAMP-OAt; calculated from Kinh
[32] = system: template 8ctc:primer + downstream-binding oligonucleotide (DNA, duplex, 3'-amino-2',3'-dideoxynucleoside at primer 3' end) CTGGATTTCCTCAGCTCCGTGCG/CGCACGG/GCTGAGGAAATCCA; test: as above; details: 400 mM NaCl, 80 mM MgCl2; 200 mM HEPES, pH 8.9, 20°C; competes with 3.6 mM dAMP-OAt; calculated from Kinh

SMILES: Cc1cn([C@H]2C[C@H](O)[C@@H](COP(=O)(O)O)O2)c(=O)[nH]c1=O
- Kd [1]: 200 mM
- Kd [2]: 241 ± 12 mM
- Kd [3]: 144 mM
- Kd [4]: 59 mM
- Kd [5]: 261 ± 47 mM
- Kd [6]: 77 mM
- Kd [7]: 113 mM
- Kd [8]: 83 mM
- Kd [9]: 284 ± 44 mM

SMILES: Nc1ccn([C@H]2C[C@H](O)[C@@H](COP(=O)(O)O)O2)c(=O)n1
- Kd [10]: 40 mM
- Kd [11]: 5 mM
- Kd [12]: 15 mM
- Kd [13]: 18 mM
- Kd [14]: 30 mM
- Kd ([15]; no saturation up to 1 M dCMP): > ≥2000 mM
- Kd [16]: 6 mM
- Kd [17]: 19 mM

SMILES: Nc1nc2c(ncn2[C@@H]2O[C@H](COP(=O)(O)O)[C@@H](O)[C@H]2O)c(=O)[nH]1
- Kd [18]: 14 mM

SMILES: Nc1nc2c(ncn2[C@H]2C[C@H](O)[C@@H](COP(=O)(O)O)O2)c(=O)[nH]1
- Kd [19]: 2 mM
- Kd [20]: 5 mM
- Kd [21]: 7 mM
- Kd [22]: 5 mM
- Kd [23]: 15 mM
- Kd [24]: 9.9 ± 0.9 mM
- Kd [15]: 100 mM
- Kd [25]: 10 mM
- Kd [26]: 16 mM

SMILES: Nc1ncnc2c1ncn2[C@H]1C[C@H](O)[C@@H](COP(=O)(O)O)O1
- Kd [27]: 17 mM
- Kd [28]: 5 mM
- Kd [29]: 5 mM
- Kd [30]: 5 mM
- Kd [15]: 38 mM
- Kd [31]: 7 mM
- Kd [32]: 7 mM
